SMILES strings stand for the structures.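 Method: 48-hour compound exposure of cells in 96-well plates, five concentrations, linear interpolation of endpoints. GI50 marks 50% less growth. TGI: total growth inhibition.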 A value given as a limit tells only on which side of the number the result lay.

In general, GI50 refers to the concentration at which growth is held to half of that of the control. In general, TGI refers to the concentration at which net growth stops.

The subject of this experiment is MDA-MB-468 breast. In words: DTP human tumour cell line panel, 48 h.
In the case of `O=C([O][Sn]([O]C(=O)c1ccccn1)([c]1ccccc1)[c]1ccccc1)c1ccccn1`, the GI50 is 1450 nM and the TGI worked out at 2760 nM.
With `CCN(c1cc(-c2ccc(CN3CCOCC3)cc2)cc(C(=O)NCc2c(C)cc(C)[nH]c2=O)c1C)C1CCOCC1`, the GI50 is 13400 nM and the total growth inhibition concentration (TGI) is 30400 nM.
The matching figures for `O=c1cc(N/N=C/c2ccc(F)cc2)c2cc(Cl)ccc2[nH]1`: 13300 nM and 49100 nM.
Taken in the same sequence, the figures for `COc1ccc(C(=O)NNc2nc(Cl)nc(N3CCN(C(c4ccccc4)c4ccccc4)CC3)n2)cc1` were 2500 nM and 47500 nM.
Taken in the same sequence, the figures for `CSCCCNC(=O)c1ccc2c(c1)/C(=C/c1[nH]c(C)cc1C)C(=O)N2` were 481 nM and over 100000 nM.
`C=C1CCC2(C#N)[C@H]3[C@H](CC[C@@H]2C)[C@@H](C)C[C@@H](CC(C)(C)NC(=O)CN2CCC2=O)[C@H]13` (stereo partly specified): the GI50 is 3220 nM and the TGI came to 22900 nM.
The matching figures for `C#Cc1nc2ccccc2c(=O)[nH]1`: 199 nM and 486 nM.
The matching figures for `Cc1nc(Nc2ccccn2)sc1C(=O)/C=C/c1ccc(Cl)cc1`: 395 nM and 5700 nM.
With `C1=C2CCCC3=Cc4ccccc4OC23Oc2ccccc21`, the GI50 was 5420 nM and the TGI was 69100 nM.
Taken in the same sequence, the figures for `c1ccc(-c2nc(N3CCOCC3)c3c4c(sc3n2)CCCCCC4)nc1` were 4120 nM and 19000 nM.
The matching figures for `COc1ccc(-c2nc(-c3nc4ccc(F)cc4[nH]3)c3ccccn23)cc1`: 4120 nM and 57100 nM.
With `Cc1nc(Nc2cccnc2)sc1C(=O)/C=C/c1ccc(Cl)cc1`, the GI50 was 2890 nM and the TGI turned out to be 8480 nM.
The matching figures for `O=C(Nc1ccc(-c2nc(-c3cccc(OCCN4CCOCC4)c3)c(-c3ccnc(Br)c3)[nH]2)cc1)c1ccccc1`: 1770 nM and 5700 nM.
Taken in the same sequence, the figures for `OCc1ccc(-c2cscc2-c2ccc(CO)o2)o1` were 74 nM and 281 nM.
The matching figures for `CCN=C1C=CC(=C(c2ccc(N(CC)CC)cc2)c2ccc(N(CC)CC)cc2)c2ccccc21`: 30.2 nM and 228 nM.
For the molecule `Cc1nc2ccc(NC(=O)CCNC(=O)CCCc3ccc(CC(C(=O)O)C(=O)O)cc3)cc2s1`, the GI50 was over 100000 nM and the TGI was over 100000 nM.
Turning to `Cc1nc2c(n1C)C(=O)c1ccccc1C2=O`, the GI50 is 25100 nM and the TGI was over 100000 nM.
The matching figures for `C=CC(=O)Nc1cc(N2CCN(CC)CC2)ccc1Nc1cc(N(C)C(=O)Nc2c(Cl)c(OC)cc(OC)c2Cl)ncn1`: 1680 nM and 4160 nM.
Taken in the same sequence, the figures for `Cc1nn2c(/C=C3/C(=O)Nc4cc(Cl)ccc43)c(-c3ccccc3)nc2s1` were 27700 nM and over 100000 nM.
The matching figures for `COc1cc2c(cc1OC)C(=O)/C(=C/c1cc(-c3ccc4c(c3)OCO4)n[nH]1)C2`: 1070 nM and 2410 nM.
As for `O=c1[nH]c2nc(NC3CCOCC3)ncc2cc1Oc1ccc(F)cc1F`, the GI50 is over 25000 nM and the total growth inhibition concentration (TGI) is over 25000 nM.
Regarding `O=C1CCC(N2C(=O)c3ccccc3C2=O)C(=O)N1` (stereo unspecified), the GI50 was over 100000 nM and the TGI was over 100000 nM.
`NCCOCCOCCNc1nc(-c2ccc(Cl)cc2)nc(N2CCN(c3ccccn3)CC2)n1`: the GI50 was 1950 nM and the TGI was 3990 nM.
Taken in the same sequence, the figures for `Cc1ccc(S(=O)(=O)c2nc(-c3ccccc3)oc2S(C)=O)cc1` (stereo unspecified) were 520 nM and 2150 nM.
The matching figures for `COc1ccc(C(O)c2cc3c(N)c(C(=O)Nc4cccc(Cl)c4)sc3nc2C)cc1` (stereo unspecified): 286 nM and 28400 nM.
Taken in the same sequence, the figures for `COc1cc(C)c(C2NC(=O)c3ccccc3N2)cc1C` (stereo unspecified) were 754 nM and over 100000 nM.
Consider `CS(=O)(=O)Nc1cc(-c2ccc3ncc(C#N)c(NCc4ccccc4O)c3c2)cnc1Cl`, for which the GI50 is 173 nM and the TGI was determined as 1680 nM.
The matching figures for `COc1cc(NC(=O)CCSc2nc3ccc(C)cc3c(=O)n2Cc2ccccc2)cc(OC)c1OC`: 5390 nM and over 100000 nM.
For the molecule `O=C(Oc1ccc(CO[N+](=O)[O-])cc1)c1ccccc1`, the GI50 is 146 nM and the TGI is 332 nM.
The matching figures for `COc1ccc2[nH]c(O)c(/C=c3/cc4c(c(-c5ccc(F)c(OC)c5)n3)=Nc3ccccc3-4)c2c1`: 1430 nM and 2940 nM.
As for `Cc1cc(O)c(C2=NN(c3ccc(S(N)(=O)=O)cc3)C(c3ccc(Cl)cc3)C2)c(C)c1Cl` (stereo unspecified), the GI50 is 10700 nM and the TGI was found to be 24600 nM.
Taken in the same sequence, the figures for `O=P1(S)OC[C@H]2O[C@@H]3[C@H](F)[C@@H]2OP(O)(=S)OC[C@H]2O[C@H]([C@H](F)[C@@H]2O1)n1cnc2c(ncnc21)NC/C=C/CNc1ncnc2c1ncn23` (stereo partly specified) were 11500 nM and over 100000 nM.
Take `COc1cnc2c(c1)C(=O)c1c-2n(CCCNCCO)c(=O)c2ccncc12`: the GI50 was 283 nM and the TGI was determined as 1650 nM.
Turning to `O=C(NCCc1ccccn1)OCc1nc2nc(Cl)nc(N3CCOCC3)c2[nH]1`, the GI50 was 1350 nM and the TGI amounted to 2880 nM.
Taken in the same sequence, the figures for `Cc1c2cc(Cl)c3ccccc3c2c[n+]2ccccc12` were 165 nM and 570 nM.
For `c1ccc2c(-c3nc(-c4c[nH]c5ccncc45)cs3)c[nH]c2c1`, the GI50 is 226 nM and the TGI came out at 1510 nM.
Taken in the same sequence, the figures for `Cn1cc(C2=C(c3cn(C)c4ccc(Cl)cc34)C(=O)NC2=O)c2ccccc21` were 2860 nM and 22000 nM.
The matching figures for `Cn1cc(-c2ccc3nnc(Sc4ccc5ncccc5c4)n3n2)cn1`: 16400 nM and over 91400 nM.

(Values after PubChem BioAssay (NCI).)
